Data published in BindingDB's records for doi:10.7270/Q26112HR (n/a, 1997).
pKi: −log10 of the molar value.

Target: D(3) dopamine receptor (Homo sapiens, UniProt P35462)
Assay: Ability to displace [125I]-sulpiride from human Dopamine receptor D3, expressed in CHO cells

Chain of D(3) dopamine receptor (P35462 as listed by the source): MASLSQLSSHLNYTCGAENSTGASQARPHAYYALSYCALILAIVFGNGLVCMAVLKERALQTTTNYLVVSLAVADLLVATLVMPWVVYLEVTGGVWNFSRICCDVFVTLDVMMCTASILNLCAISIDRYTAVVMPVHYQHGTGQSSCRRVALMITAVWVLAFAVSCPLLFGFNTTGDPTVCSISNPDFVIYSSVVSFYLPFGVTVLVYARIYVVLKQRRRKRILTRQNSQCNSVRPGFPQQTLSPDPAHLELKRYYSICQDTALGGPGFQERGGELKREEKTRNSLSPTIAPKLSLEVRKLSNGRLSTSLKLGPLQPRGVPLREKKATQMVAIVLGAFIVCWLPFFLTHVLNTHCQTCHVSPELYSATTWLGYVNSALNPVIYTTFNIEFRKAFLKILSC

## CCS(=O)(=O)c1ccc(OC)c(-c2ccc(CN3CCCCCC3c3ccccc3)[nH]2)c1 (stereo unspecified)
  pKi: 8.89
